Measurements: ChEMBL document CHEMBL3272159, “Synthesis and antihypertensive activity of 1-amino-3,4-dihydroisoquinolines” (1977)

Tested on: Rattus norvegicus
Assay: Antihypertensive activity in po dosed renal hypertensive rat assessed as dose required to produce lowering of blood pressure to <= 130 mm after 2 to 24 hrs by photoelectric tensometric analysis
Type: functional

| SMILES | ED50 [mg/kg] |
| --- | --- |
| CC1Cc2ccccc2C(NN)=N1.Cl (stereo unspecified) | 40 |
| Cl.c1ccc2c(c1)CCN=C2N1CCCCC1 | > 50 |
| C(=N\NC1=NCCc2ccccc21)/c1ccccc1.Cl | > 50 |
| NNc1nncc2ccccc12 [HYDRALAZINE] | 10 |
| COc1cc(/C=N/NC2=NCCc3ccccc32)cc(OC)c1O.Cl | > 50 |
| F[B-](F)(F)F.[NH3+]NC1=NCC(O)c2ccccc21 (stereo unspecified) | > 50 |
| O=S(=O)(O)O.c1ccc2c(c1)CCN=C2NN=C1CCCCC1 | > 50 |
| C/C=C/C(C)=N\NC1=NCCc2ccccc21.O=S(=O)(O)O | > 50 |
| NNC1=NCCc2ccccc21 | 30 |
| COc1cc(CCNC2=NCCc3ccccc32)cc(OC)c1OC.O=S(=O)(O)O | > 50 |
| CCCCCCNC1=NCCc2ccccc21.O=S(=O)(O)O | > 50 |
| O=S(=O)(O)c1cccc2c(S(=O)(=O)O)cccc12.c1ccc(CONC2=NCCc3ccccc32)cc1 | > 50 |
| COc1ccc(NC2=NCCc3ccccc32)cc1 | > 50 |
| CN(C)NC1=NCCc2ccccc21.Cl | > 50 |
| CCCC/C=N/NC1=NCCc2ccccc21.Cl | > 50 |
| CC(C)=NNC1=NCCc2ccccc21.O=S(=O)(O)O | 15 |
| O=S(=O)(O)O.c1ccc2c(c1)CCN=C2NCCc1ccc2c(c1)OCO2 | > 50 |
| CCN(CC)CCOc1ccc(CNC2=NCCc3ccccc32)cc1.O=S(=O)(O)c1cccc2c(S(=O)(=O)O)cccc12 | > 50 |
| Nc1ccc(CCNC2=NCCc3ccccc32)cc1Cl.O=S(=O)(O)O | > 50 |
| COc1cccc(/C=N/NC2=NCCc3ccccc32)c1OC.Cl | > 50 |
| CN(C)CCNC1=NCCc2ccccc21.Cl | > 50 |
| Cl.Oc1ccc(CCNC2=NCCc3ccccc32)cc1O | > 50 |
| C/C=N/NC1=NCCc2ccccc21.O=S(=O)(O)O | 15 |
| O=S(=O)(O)O.c1ccc2c(c1)CCN=C2NCc1ccncc1 | > 50 |
| Cl.NC1=NCCc2ccccc21 | > 50 |
| COc1ccc(CCNC2=NCCc3ccccc32)cc1OC.O=S(=O)(O)O | > 50 |
